Assay results: patent US12364719B2, “Bacillus subtilis strains improving animal performance parameters” (priority 2017, dated 2025)
Read-outs that look alike come from different tables or passages of the source.

Tested on: Clostridium perfringens strain 56
Assay type: in vivo, Male Ross 308 broilers
Details: for Mean score (NE): 0-6 score

`CC1(C)S[C@@H]2[C@H](NC(=O)[C@H](N)c3ccc(O)cc3)C(=O)N2[C@H]1C(=O)O` [Amoxicillin] was tested, and the “% NE (birds positive to macroscopic necrotic enteritis lesions)” value (“% NE” for short) (Day 25, lesion score 2, infected day 19-22) was 44%, the “% NE” value (Day 25 and 26 combined) was 29% and the “Mean score (NE)” value (Day 25 and 26 combined) was 1.315. The “Mean score (NE)” value (Day 26) was 1.07 and the “% NE” value (Day 26, lesion score 2, infected day 19-22) was 14%.
